Results published in patent publication US20150025077A1 (COYOTE PHARMACEUTICALS, INC., priority 2012, published 2015).
“And” between values parts separate entries of the source, which are not always exact repeats. Equal entries are not always repeated. Where two headings read alike, the source gives them in different places.

How the values were obtained:
[1] = test system: Mouse Neuro2A neuroblastoma cells; test: Neuro2A cells with neurites after GGTI-298 (Example 16); type: cell-based; conditions: 10 μM
Protocol: Mouse Neuro2A neuroblastoma cells were cultured in DMEM supplemented with 10% FBS for 24 hrs. […] Then differentiation was induced by retinoic acid in DMEM supplemented with 2% FBS. The cell culture was incubated with a Geranylgeranyl Transferase inhibitor, GGTI-298. After 24 hrs incubation, cells with neurites were counted.

Neuro2A cells = Neuro2A cells that extended neurites, with GGTI-298 (Example 18); type: cell-based; conditions: 0.1-1 μM; vehicle 0.0-0.20
Description: After differentiation was induced, cells that extended neurites were counted.

[2] = Pharmacokinetics of CNS-102 in rats (IV, oral); type: in vivo; conditions: rat
Protocol: Rats were administered a single dose of CNS-102 either intravenously (12 mg/kg) or orally (24 mg/kg), and blood samples were taken to measure the average plasma concentrations of CNS-102 over time.
The formulation for this study includes the following: […]
Formulations: (Dose: 24 mg/kg; Study Date: 4-16-2012)

HSP90 = HSP90 expression in neuro2A cells, western blot; type: cell-based, mouse; conditions: 48 hours, GGTI-298
Protocol: Differentiation was induced and cells incubated with geranylgeranyl transferase I inhibitor, GGTI-298. Cells were harvested and lysates were prepared and analyzed by western blot for HSP70 and HSP90. Western signals in the absence of the compounds were normalized as 1.00.

SOD1 mice = test: Survival in the SOD1 mouse model of ALS; type: in vivo
RhoA = test: Active RhoA to total RhoA in Neuro2A cells (G-LISA, ELISA); type: cell-based, mouse; conditions: 48 hrs, active RhoA to total RhoA as percentage of DMSO treatments
Protocol: Mouse neuroblastoma Neuro2A cells were cultured in DMEM supplemented with 10% FBS for 24 hrs. […] Cell lysates were quantified and subjected either to active RhoA assay using G-LISA RhoA activation Assay Biochem Kit (Cytoskeleton Inc), or to total RhoA assay using Total RhoA ELISA Kit (Cytoskeleton Inc). The results were calculated as ratio of active RhoA to total RhoA and averaged from 3 biological repeats of one experiment with background subtraction. The data was presented as percentage of DMSO treatments.

HSP70 [3] = test: HSP70 induction in rat hippocampus with or without kainic acid injection (immunohistochemistry, western blot); type: in vivo; conditions: KA stereotactically injected in hippocampus; localized in the injection site
Protocol: Stereotactic injections of Kainic acid into rat hippocampus tissues led to increased damages in neurons. […] Under this condition, neurons and HSP70 expression was stained by immunohistochemistry techniques. HSP70 expression was induced in a very specific area only that KA was injected. The induced area was not stained by HSP70 antibody when KA was not injected, but CNS-102 was dosed.
HSP70 induction by dosing CNS-102 in the absence of the KA injection was limited in western blot experiments using hippocampus lysates. 120% or 130% of HSP70 expression could be seen by comparing those of vehicle dosing control experiments.

[4] = mouse, in vivo, po, 12 mg/kg
Description: Blood and serum samples from days P70 and P100 were collected on three animals from each of the six treatment groups. Hematology measures were white blood cell count, red blood cell count, hemoglobin, hematocrit, mean corpuscular volume, mean corpuscular hemoglobin, mean corpuscular hemoglobin concentration, and platelets. Chemistry values were alanine aminotransferase, aspartate aminotransferase, albumin, total protein, gamma globulin, blood urea nitrogen, cholesterol, and glucose. No analyses were conducted on any samples collected after P100.

HSP70 [5] = conditions: rat eyes, single dose 12 mg/kg
[6] = 12 mg/kg IV, individual rats 1-3, 12 mg/kg
[7] = 12 mg/kg IV, individual rats 2, 3, 12 mg/kg
[8] = 24 mg/kg oral vs 12 mg/kg IV, average
[9] = 24 mg/kg oral, individual rats 4-6, 24 mg/kg

In the case of `CC(=O)CC/C=C(\C)CC/C=C(\C)CC/C=C(\C)CCC=C(C)C` [CNS-102], the “Mean of cell numbers (cells with neurites)” value [1] is reported as 0.738 Arbitrary units, the “Mean of cell numbers (cells that extended neurites)” value (Neuro2A cells) is reported as 0.45-0.65 Arbitrary units and the “Plasma Concentration of CNS-102” value ([2]; 12 mg/kg IV, 5 min, average) is reported as 2402.5 ng/mL. The “Plasma Concentration of CNS-102” value ([2]; 12 mg/kg IV, 5 min, individual rats 1-3, 12 mg/kg) was 1268.2 ng/mL and 4087.5 ng/mL, the “Plasma Concentration of CNS-102” value ([2]; 12 mg/kg IV, 10 min, average) was 869.6 ng/mL and the “Plasma Concentration of CNS-102” value ([2]; 12 mg/kg IV, 10 min, individual rats 1-3, 12 mg/kg) was 227.0 ng/mL and 929.0 ng/mL. The “Plasma Concentration of CNS-102” value ([2]; 12 mg/kg IV, 20 min, average) was 518.9 ng/mL, the “Plasma Concentration of CNS-102” value ([2]; 12 mg/kg IV, 20 min, individual rats 1-3, BQL set to zero, 12 mg/kg) was 0.00 ng/mL and 652.7 ng/mL and the “Plasma Concentration of CNS-102” value ([2]; 12 mg/kg IV, 30 min, average) was 334.7 ng/mL. For the same compound, the “Plasma Concentration of CNS-102” value ([2]; 12 mg/kg IV, 30 min, individual rats 1-3, BQL set to zero) was 0.00 ng/mL, the “Plasma Concentration of CNS-102” value ([2]; 12 mg/kg IV, 60 min, average) was 325.8 ng/mL and the “Plasma Concentration of CNS-102” value ([2]; 12 mg/kg IV, 60 min, individual rats 1-3, BQL set to zero) was 0.00 ng/mL. The “Plasma Concentration of CNS-102” value ([2]; 12 mg/kg IV, 120 min, average) was 150.2 ng/mL, the “Plasma Concentration of CNS-102” value ([2]; 12 mg/kg IV, 120 min, individual rats 1-3, BQL set to zero) was 0.00 ng/mL and the “Plasma Concentration of CNS-102” value ([2]; 12 mg/kg IV, 240 min, average) was 209.0 ng/mL. For the same compound, the “Plasma Concentration of CNS-102” value ([2]; 12 mg/kg IV, 240 min, individual rats 1-3, BQL set to zero) was 0.00 ng/mL, the “Plasma Concentration of CNS-102” value ([2]; 12 mg/kg IV, 480 min, average) was 77.4 ng/mL and the “Plasma Concentration of CNS-102” value ([2]; 12 mg/kg IV, 480 min, individual rats 1-3, BQL set to zero) was 0.00 ng/mL. For the same compound, the “Plasma Concentration of CNS-102” value ([2]; 12 mg/kg IV, 720 min, average) was 0.0 ng/mL, the “Plasma Concentration of CNS-102” value ([2]; 12 mg/kg IV, 720 min, individual rats 1-3, BQL set to zero) was 0.00 ng/mL and the “AUC(0-inf)” value ([2]; 12 mg/kg IV, average) was 208728 ng·min/mL. The “AUC(0-last)” value ([2]; 12 mg/kg IV, average) was 115146 ng·min/mL, the C0 ([2]; 12 mg/kg IV, average) was 9144.0 ng/mL and the Vss ([2]; 12 mg/kg IV, average) was 9796 mL/kg. The Vz ([2]; 12 mg/kg IV, average) was 12039 mL/kg, the t1/2 ([2]; 12 mg/kg IV, average) was 147.0 min and the “AUC(0-last)” value [2, 6] was 19934.3 ng·min/mL and 95802.8 ng·min/mL and 229701.4 ng·min/mL. For the same compound, the C0 [2, 6] was 7086.8 ng/mL and 17984.5 ng/mL and 2360.7 ng/mL, the “AUC(0-inf)” value [2, 7] was 115420.9 ng·min/mL and 302035.6 ng·min/mL and the Vss [2, 7] was 6051.9 mL/kg and 13539.6 mL/kg. The Vz [2, 7] was 11699.8 mL/kg and 12378.5 mL/kg, the t1/2 [2, 7] was 78.0 min and 216.0 min and the “F (0-inf)” value [2, 8] was 49.1%. For the same compound, the “F (0-last)” value [2, 8] was 82.1%, the “Plasma Concentration of CNS-102” value ([2]; 24 mg/kg oral, 10 min, average) was 0.0 ng/mL and the “Plasma Concentration of CNS-102” value ([2]; 24 mg/kg oral, 10 min, individual rats 4-6, BQL set to zero) was 0 ng/mL. For the same compound, the “Plasma Concentration of CNS-102” value ([2]; 24 mg/kg oral, 30 min, average) was 193.3 ng/mL, the “Plasma Concentration of CNS-102” value ([2]; 24 mg/kg oral, 30 min, individual rats 4-6, 24 mg/kg) was 193.8 ng/mL and 224.3 ng/mL and 161.8 ng/mL and the “Plasma Concentration of CNS-102” value ([2]; 24 mg/kg oral, 60 min, average) was 576.8 ng/mL. The “Plasma Concentration of CNS-102” value ([2]; 24 mg/kg oral, 60 min, individual rats 4-6, 24 mg/kg) was 331.9 ng/mL and 500.2 ng/mL, the “Plasma Concentration of CNS-102” value ([2]; 24 mg/kg oral, 120 min, average) was 176.8 ng/mL and the “Plasma Concentration of CNS-102” value ([2]; 24 mg/kg oral, 120 min, individual rats 4-6) was 147.6 ng/mL. For the same compound, the “Plasma Concentration of CNS-102” value ([2]; 24 mg/kg oral, 240 min, average) was 298.0 ng/mL, the “Plasma Concentration of CNS-102” value ([2]; 24 mg/kg oral, 240 min, individual rats 4-6, BQL set to zero) was 0 ng/mL and the “Plasma Concentration of CNS-102” value ([2]; 24 mg/kg oral, 480 min, average) was 489.7 ng/mL. The “Plasma Concentration of CNS-102” value ([2]; 24 mg/kg oral, 720 min, average) was 47.2 ng/mL, the “Plasma Concentration of CNS-102” value ([2]; 24 mg/kg oral, 720 min, individual rats 4-6, BQL set to zero) was 0 ng/mL and the “Plasma Concentration of CNS-102” value ([2]; 24 mg/kg oral, 1440 min, average) was 0.0 ng/mL. For the same compound, the “Plasma Concentration of CNS-102” value ([2]; 24 mg/kg oral, 1440 min, individual rats 4-6, BQL set to zero) was 0 ng/mL, the “AUC(0-inf)” value ([2]; 24 mg/kg oral, average) was 204878 ng·min/mL and the “AUC(0-last)” value ([2]; 24 mg/kg oral, average) was 189114 ng·min/mL. The Cmax ([2]; 24 mg/kg oral, average) was 752.9 ng/mL, the Tmax ([2]; 24 mg/kg oral, average) was 340 min and the t1/2 ([2]; 24 mg/kg oral, average) was 103 min. For the same compound, the “AUC(0-inf)” value [2, 9] was 234242 ng·min/mL and 157666 ng·min/mL and 222724 ng·min/mL, the “AUC(0-last)” value [2, 9] was 214144 ng·min/mL and 130474 ng·min/mL and 222724 ng·min/mL and the Cmax [2, 9] was 768 ng/mL and 898.2 ng/mL and 592.5 ng/mL. The “F (0-inf)” value [2, 9] was 56.1% and 37.8% and 53.4%, the “F (0-last)” value [2, 9] was 93.0% and 56.7% and 96.7% and the Tmax [2, 9] was 480 min (2×) and 60 min. For the same compound, the t1/2 [2, 9] was 98.4 min and 173.7 min and 36.8 min, the “HSP90 western signal (absence of compounds = 1.00)” value (from here on “HSP90 western signal”) (HSP90; 100 nM) was 3.29 and the “HSP90 western signal” value (HSP90; 1 μM) was 1.74. For the same compound, the “HSP90 western signal” value (HSP90; 10 μM) was 1.21, the “Median Survival” value (SOD1 mice; CNS-102 12 mg/kg or riluzole 8 mg/kg daily oral from P38, vehicle 125.0) was 133.0 days and the “% Increase in median time to death compared to vehicle group” value (SOD1 mice; parametric regression (gamma distribution)) was 9% and 9.5%. For the same compound, the “% Relative RhoGTPase Activity” value (RhoA; CNS-102 10 nM) was 103.6%, the “% Relative RhoGTPase Activity” value (RhoA; CNS-102 100 nM) was 120.1% and the HSP70 induction (HSP70 [3]) was “strong induction of HSP70”. For the same compound, the “ABSOLUTE BASOPHIL” value [4] was 0 per mm^3, the “ABSOLUTE EOSINOPHIL” value [4] was 61.6 per mm^3 and the “ABSOLUTE LYMPHOCYTE” value [4] was 3922.4 per mm^3. For the same compound, the “ABSOLUTE MONOCYTE” value [4] was 49.8 per mm^3, the “ABSOLUTE NEUTROPHIL SEG” value [4] was 659.6 per mm^3 and the “ALKALINE PHOSPHATASE” value [4] was 70.7 U/L. For the same compound, the BASOPHIL [4] was 0.0%, the BICARBONATE [4] was 5.0 mg/dL and the BUN [4] was 28.8 mg/dL. The CALCIUM [4] was 7.7 mg/dL, the CHOLESTEROL [4] was 72.4 mg/dL and the CREATININE [4] was less than 1 mg/dL. For the same compound, the “DIRECT BILIRUBIN” value [4] was 0.0 mg/dL, the EOSINOPHIL [4] was 1.5% and the GLUCOSE [4] was 207.6 mg/dL. The HCT [4] was 46.0%, the HGB [4] was 13.6 gram/dL and the “INDIRECT BILIRUBIN” value [4] was 0.0 mg/dL. The LYMPHOCYTE [4] was 84.0%, the MCH [4] was 15.5 pg and the MCHC [4] was 29.5%. The MCV [4] was 52.6 U^3, the MONOCYTE [4] was 0.8% and the “NEUTROPHIL SEG” value [4] was 13.8%. For the same compound, the NRBC [4] was 0.0 per 100 WBC, the PHOSPHORUS [4] was 5.7 mg/dL and the “PLATELET COUNT” value [4] was 1128.6 Thousands. The RBC [4] was 8.8 Millions, the “SGOT (AST)” value [4] was 46.3 U/L and the “SGPT (ALT)” value [4] was 37.8 U/L. For the same compound, the “TOTAL BILIRUBIN” value [4] was 0.0 mg/dL, the WBC [4] was 4.7 thousands and the “HSP70 Expression (Fold change vs vehicle control), mean ± SD” value (HSP70 [5]; 24 hr) was 1.47 ± 0.36. For the same compound, the “HSP70 Expression (Fold change vs vehicle control), mean ± SD” value (HSP70 [5]; 48 hr) was 1.33 ± 0.10 and the “HSP70 Expression (Fold change vs vehicle control), mean ± SD” value (HSP70 [5]; 72 hr) was 1.40 ± 0.11.
